Molecular target: T1, CFTR (Homo sapiens, UniProt P13569, DEL508-508)
T1 construct: Primary CF airway epithelial cells were obtained from the UNC Cystic Fibrosis Tissue Procurement and Cell Culture Core; host or cells: primary CF airway epithelial cells, differentiated at the air-liquid interface
Assay: Equivalent current assay in primary CF airway epithelial cells (NAUC, combination with 1st site corrector FDL169 or VX-809)
Type: cell-based
Details: 37° C., 24 h

[1] = test compound 10 μM in combination with 1st site corrector VX-809 (3 μM)
[2] = test compound 1 μM in combination with 1st site corrector VX-809 (3 μM)
[3] = test compound 3 μM in combination with 1st site corrector VX-809 (3 μM)
[4] = test compound 1 μM in combination with 1st site corrector FDL169 (3 μM)
[5] = test compound 3 μM in combination with 1st site corrector FDL169 (3 μM)
[6] = test compound 10 μM in combination with 1st site corrector FDL169 (3 μM)

T1 sequence (P13569 with tags, fused parts or gaps DEL508-508): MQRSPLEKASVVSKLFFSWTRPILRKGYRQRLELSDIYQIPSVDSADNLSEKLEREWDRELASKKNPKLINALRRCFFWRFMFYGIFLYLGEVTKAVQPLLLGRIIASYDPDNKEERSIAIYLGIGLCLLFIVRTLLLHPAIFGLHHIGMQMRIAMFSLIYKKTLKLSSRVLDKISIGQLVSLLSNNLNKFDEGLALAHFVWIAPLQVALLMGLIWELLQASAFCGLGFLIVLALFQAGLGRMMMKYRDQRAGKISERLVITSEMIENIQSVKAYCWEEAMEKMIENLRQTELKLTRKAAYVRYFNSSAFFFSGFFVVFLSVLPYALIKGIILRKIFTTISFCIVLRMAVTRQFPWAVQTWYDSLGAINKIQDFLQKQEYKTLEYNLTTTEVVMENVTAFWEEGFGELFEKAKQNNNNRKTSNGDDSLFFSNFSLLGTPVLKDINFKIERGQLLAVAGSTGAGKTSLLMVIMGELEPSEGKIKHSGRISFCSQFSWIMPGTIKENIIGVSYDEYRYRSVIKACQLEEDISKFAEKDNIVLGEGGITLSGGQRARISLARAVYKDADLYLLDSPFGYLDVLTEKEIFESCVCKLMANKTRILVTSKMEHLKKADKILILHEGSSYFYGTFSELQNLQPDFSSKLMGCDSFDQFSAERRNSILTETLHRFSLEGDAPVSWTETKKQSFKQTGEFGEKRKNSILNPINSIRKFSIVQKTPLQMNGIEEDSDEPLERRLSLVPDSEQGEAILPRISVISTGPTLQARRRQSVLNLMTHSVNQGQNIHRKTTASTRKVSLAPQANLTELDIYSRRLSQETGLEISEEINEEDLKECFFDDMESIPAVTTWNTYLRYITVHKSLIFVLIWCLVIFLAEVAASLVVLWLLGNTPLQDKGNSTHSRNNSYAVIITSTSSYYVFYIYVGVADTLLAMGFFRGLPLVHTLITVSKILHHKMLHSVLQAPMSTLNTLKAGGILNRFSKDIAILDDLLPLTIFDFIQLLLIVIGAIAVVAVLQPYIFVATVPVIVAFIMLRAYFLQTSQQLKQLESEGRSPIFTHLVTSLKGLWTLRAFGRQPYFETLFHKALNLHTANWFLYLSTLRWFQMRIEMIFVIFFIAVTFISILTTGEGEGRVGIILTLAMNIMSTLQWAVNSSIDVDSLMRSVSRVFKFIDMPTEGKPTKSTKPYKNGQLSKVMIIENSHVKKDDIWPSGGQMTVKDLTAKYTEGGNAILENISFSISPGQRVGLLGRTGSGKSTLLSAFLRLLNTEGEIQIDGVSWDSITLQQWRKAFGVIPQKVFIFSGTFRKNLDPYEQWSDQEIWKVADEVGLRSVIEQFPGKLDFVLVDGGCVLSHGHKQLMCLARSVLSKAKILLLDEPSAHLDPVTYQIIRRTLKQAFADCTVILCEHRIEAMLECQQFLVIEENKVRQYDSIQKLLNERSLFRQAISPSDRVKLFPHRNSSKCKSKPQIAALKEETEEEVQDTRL

Structure (SMILES) | Nauc @ 10 μM [1] | Nauc @ 1 μM [2] | Nauc @ 3 μM [3] | Nauc @ 1 μM [4] | Nauc @ 3 μM [5] | Nauc @ 10 μM [6]
CN(O)C(=O)C1C(C(=O)N(C)c2cc(Cl)cc(Cl)c2)C2CC(F)(F)CN2C12C(=O)Nc1c(Cl)cc(Cl)cc12 (single isomer, unassigned) [Example 229b, 5,7-dichloro-N1′-(3,5-dichlorophenyl)-6′,6′-difluoro-N2′-hydroxy-N1′,N2′-dimethyl-2-oxo-1′,2′,5′,6′,7′,7a′-hexahydrospiro[indoline-3,3′-pyrrolizine]-1′,2′-dicarboxamide] | + (NAUC “+” refers to an observed NAUC <140% of positive control) |  |  |  |  | 
O=C(Nc1n[nH]c2ccc(F)cc12)[C@H]1[C@H]2CC(F)(F)CN2[C@]2(C(=O)Nc3c(Cl)cc(Cl)cc32)[C@H]1C(=O)O [Example 130] |  | + (NAUC “+” refers to an observed NAUC <140% of positive control) | + (NAUC “+” refers to an observed NAUC <140% of positive control) |  |  | 
CC(C)(C)CCN(C(=O)[C@H]1[C@H]2CC(F)(F)CN2[C@]2(C(=O)Nc3c(Cl)cc(Cl)cc32)[C@H]1C(=O)O)c1cc(Cl)cc(Cl)c1 [Example 182] |  |  |  | +++ (NAUC “+++” refers to an observed NAUC>170% of positive control) | ++ (NAUC “++” refers to an observed NAUC 170-140% of positive control) | 
O=C(O)[C@H]1[C@@H](C(=O)N(CC23CC(F)(C2)C3)c2cc(Cl)cc(Cl)c2)[C@H]2CC(F)(F)CN2[C@]12C(=O)Nc1c(Cl)cc(Cl)cc12 [Example 188] |  |  |  | +++ (NAUC “+++” refers to an observed NAUC>170% of positive control) | ++ (NAUC “++” refers to an observed NAUC 170-140% of positive control) | ++ (NAUC “++” refers to an observed NAUC 170-140% of positive control)
CN(C(=O)[C@H]1[C@H]2CCCCN2[C@]2(C(=O)Nc3c(Cl)cc(Cl)cc32)[C@H]1C(=O)O)c1cc(Cl)cc(Cl)c1 (racemic) [Example 219, rac-(1′R,2′S,3R,8a′R)-5,7-dichloro-1′-((3,5-dichlorophenyl)(methyl)carbamoyl)-2-oxo-1′,5′,6′,7′,8′,8a′-hexahydro-2′H-spiro[indoline-3,3′-indolizine]-2′-carboxylic acid] |  |  |  | ++ (NAUC “++” refers to an observed NAUC 170-140% of positive control) | + (NAUC “+” refers to an observed NAUC <140% of positive control) | 
CC(C)(C)c1cccc(C2CC2NC(=O)[C@H]2[C@H]3CC(F)(F)CN3C3(C(=O)Nc4c(Cl)cc(Cl)cc43)[C@H]2C(=O)O)c1 (stereo partly drawn) [Example 272] | ++ (NAUC “++” refers to an observed NAUC 170-140% of positive control) | + (NAUC “+” refers to an observed NAUC <140% of positive control) | + (NAUC “+” refers to an observed NAUC <140% of positive control) |  |  | 
CC(C)(C)CN(C(=O)[C@H]1[C@@H](C(=O)O)C2(C(=O)Nc3c(Cl)cc(Cl)cc32)N2CC(C)(C)C[C@@H]12)c1cc(Cl)cc(Cl)c1 (single isomer, unassigned) [Example 274.6b, (1′S,2′R,7a′S)-5,7-dichloro-1′-((3,5-dichlorophenyl)(neopentyl)carbamoyl)-6′,6′-dimethyl-2-oxo-1′,2′,5′,6′,7′,7a′-hexahydrospiro[indoline-3,3′-pyrrolizine]-2′-carboxylic acid] |  |  |  | +++ (NAUC “+++” refers to an observed NAUC>170% of positive control) | ++ (NAUC “++” refers to an observed NAUC 170-140% of positive control) | + (NAUC “+” refers to an observed NAUC <140% of positive control)
CC(C)C1NC2(C(=O)Nc3c(Cl)cc(Cl)cc32)C(C(=O)O)C1C(=O)Nc1cc(Cl)cc(Cl)c1 (stereo not drawn) [Example 33] | +++ (NAUC “+++” refers to an observed NAUC>170% of positive control) |  | +++ (NAUC “+++” refers to an observed NAUC>170% of positive control) |  |  | 

From patent publication US20230055237A1, “COMPOUNDS AND METHODS FOR THE TREATMENT OF CYSTIC FIBROSIS” (Flatley Discovery Lab, LLC, priority 2019, published 2023)
